“Also recorded” adds a separate entry of the source.

In test [1] the target is T1, GFP-MUC1-CD and Flag-MUC1-CD (Homo sapiens, UniProt P15941).
T1 construct: expressed in transfected cells; host or cells: HEK 293 cells (no endogenous MUC1)
T1 sequence (P15941 1184-1255 limits assumed): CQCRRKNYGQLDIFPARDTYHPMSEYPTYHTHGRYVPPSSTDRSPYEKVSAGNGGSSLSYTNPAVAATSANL
As to the kind of experiment: Inhibition of dimerization of MUC1-CD in cyto (coprecipitation in transfected 293 cells). To be noted: for formation of MUC1-CD dimers (anti-Flag precipitates, anti-GFP blot): 75 μM for 3 days. The format is cell-based. Here is the method:
(§1) FIGS. 1A-D. MUC1/CQC peptide blocks MUC1 oligomerization. (FIG. 1A) Schematic representation of the MUC1-C subunit and the 72-amino acid sequence of MUC1-CD (SEQ ID NO: 1) are shown. The N-terminal 15 amino acids (shaded sequence) MUC1/CQC (SEQ ID NO: 10) and mutated MUC1/AQA (SEQ ID NO: 11) peptides were synthesized with the poly-dArg transduction domain. (FIG. 1B) His-MUC1-CD (1.4 mg/ml) was immobilized on a sensor chip in a BIAcore. MUC1/CQC was injected over the chip at 10 μM. Raw binding data were analyzed by BIAevaluation software version 3.0 and fit to a 1:1 Languir binding model. (FIG. 1C) Purified His-MUC1-CD (1.5 mg/ml) was incubated with PBS, 200 μM MUC1/CQC or 200 μM MUC1/AQA for 1 h at room temperature. The proteins were separated in a non-reducing SDS-polyacrylamide gel and analyzed by immunoblotting with anti-MUC1-C. (FIG. 1D) 293 cells were transiently transfected to express an empty vector or GFP-MUC1-CD and Flag-MUC1-CD. At 48 h after transfection, the cells were treated with 5 μM MUC1/CQC or MUC1/AQA for 3 d. The cells were then harvested for immunoblotting with anti-MUC1-C (left panel). Whole cell lysates were also precipitated with anti-Flag and the precipitates were immunoblotted with the indicated antibodies (right panels).
FIG. 8—293 cells transiently transfected to express an empty vector or GFP-MUC1-CD and Flag-MUC1-CD. At 48 he after transfection, cells were left untreated (control), or treated with 5 μmol/L GO-201 or CP-1 each day for 3 days. The cells were then harvested for immunoblotting with anti-MUC1-C (left). Whole-cell lysates were also precipitated with anti-Flag and the precipitates were immunoblotted with the indicated antibodies (right).
(§2) FIGS. 12A-D—Apigenin is an inhibitor of MUC1-CD dimerization in vitro and in cells. (FIG. 12A) Structures of apigenin and its analogue baicalein. Using the in vitro screening assay, dimerization of MUC1-CD was assessed in the presence of 100 μM apigenin or 100 μM baicalein each dissolved in 0.1% DMSO. The results (mean±SD of 3 determinations) are expressed as percentage of control dimerization in the presence of DMSO alone. (FIG. 12B) MUC1-CD dimerization was assessed in the presence of the indicated concentrations of apigenin in the in vitro screening assay. […] (FIG. 12C) Soluble MUC1-CD was incubated in the presence of 1% DMSO, 1 mM apigenin or 1 mM baicalein for 1 h at room temperature. Monomers and dimmers were assessed by electrophoresis in a non-reducing gel and immunoblotting with anti-MUC1-C. (FIG. 12D) 293 cells were transiently transfected to express an empty vector or GFP-MUC1-CD and Flag-MUC1-CD. At six hours after transfection, the cells were left untreated, and treated with 75 μM apigenin or baicalein for 3 days. Whole-cell lysates were precipitated with anti-Flag, and the precipitates were immunoblotted with the indicated antibodies.
Two different versions of MUC1-CD vectors have been generated for transformation of cells: GFP-MUC1-CD and Flag-MUC1-CD. […] At 48 hr post-transfection, cells are incubated with the selected compounds from the primary and/or secondary screening assays. Cells are then harvested and used for immunoblotting with anti-MUC1-C. Total cell lysates are subjected to immunoprecipitation with anti-GFP antibody and the adsorbates are analyzed by immunoblotting with anti-Flag antibody.
293 cells were transfected with vectors expressing GFP, GFP-MUC1-CD or Flag-MUC1-CD in the presence of Lipofectamine as described (Leng et al., 2007).
The inventors generated two different versions of MUC1-CD vectors for transfecting into cells: GFP-MUC1-CD and Flag-MUC1-CD. […] At 48 hours post-transfection, cells are incubated with selected compounds. The cells were harvested for immunoblotting with anti-MUC1-C. Total cell lysates are subjected to immunoprecipitation with anti-GFP antibody and the adsorbates are analyzed by immunoblotting with anti-Flag antibody. An inhibitor of MUC1-CD dimerization will inhibit dimerization of MUC1-CD in cyto. […]

Test [2] has as its target T2, His-MUC1-CD (Homo sapiens, UniProt P15941).
T2 construct: made in house
T2 sequence (P15941 1184-1255): T1 sequence (P15941 1184-1255 limits assumed)
Put plainly: In-gel in vitro MUC1-CD dimerization/oligomerization assay (non-reducing SDS-PAGE, anti-MUC1-C immunoblot). It is filed as biochemical. The following applies: 1 h at room temperature; for formation of MUC1-CD dimers, soluble protein: 1 mM compound. Here is the method:
as §1
FIG. 7—GO-201 blocks MUC1 oligomerization. Purified His-MUC1-CD was incubated with PBS (control), GO-201, or CP-1 for 1 hr at room temperature. The proteins were separated in a non-reducing SDS-polyacrylamide gel (SDS-PAGE) and analyzed by immunoblotting with anti-MUC1-C antibodies. The formation of dimers and tetramers was inhibited by incubation with GO-201.
as §2, with “At six hours after transfection, the cells were left untreated, and treated with 75 μM apigenin or baicalein for 3 days. Whole-cell lysates were precipitated with anti-Flag, and the precipitates were immunoblotted with the indicated antibodies.” left out
Purified His-tagged MUC1-CD protein also forms dimers and oligomers when incubated in a buffer in vitro, and these can be detected by electrophoresis in polyacrylamide gels. […] Following extensive washings, the proteins are separated in a non-reducing SDS-polyacrylamide gel and analyzed by immunoblotting with anti-MUC1-CD antibody.
As a positive control for validation of this assay for secondary screening, purified His-MUC1-CD is incubated with either PBS or with GO-201 (CQC peptide) for 1 hr at room temperature. The proteins are separated in a non-reducing SDS-polyacrylamide gel and analyzed by immunoblotting with anti-MUC1-CD antibody.
Purified His-tagged MUC1-CD protein forms dimers and oligomers when incubated in a buffer in vitro, as detected by electrophoresis in polyacrylamide gels. […] Following extensive washings, the proteins are separated in a non-reducing SDS-polyacrylamide gel and analyzed by immunoblotting with anti-MUC1-CD antibody. […]
A general note: In western blotting, separated proteins are transferred to a membrane and probed.

Setting [3] is: transfected 293 cells, 5 μM peptide for 3 d.

As to `O=c1cc(-c2ccc(O)cc2)oc2cc(O)cc(O)c12` [Apigenin, 4′,5,7-trihydroxyflavone], the “formation of MUC1-CD dimers (anti-Flag precipitates, anti-GFP blot)” value in test [1] (transfected 293 cells) is “completely blocked”. For the same compound, in test [2], the “formation of MUC1-CD dimers, soluble protein” value is recorded as “completely blocked”.
As to `O=c1cc(-c2ccccc2)oc2cc(O)c(O)c(O)c12` [Baicalein, 5,6,7-trihydroxyflavone, reference compound], the “formation of MUC1-CD dimers (anti-Flag precipitates, anti-GFP blot)” value in test [1] (transfected 293 cells) is on record as “not”. In test [2], the “formation of MUC1-CD dimers, soluble protein” value is given as “little effect”.
On to “MUC1/AQA: control peptide in which the CQC motif was altered to AQA (SEQ ID NO: 11) (AQARRKNYGQLDIFP) [reference compound]”, for which the “interaction between Flag-MUC1-CD and GFP-MUC1-CD” value in test [1] (setting [3]) was “no apparent effect”. Further, the His-MUC1-CD oligomer formation entry in test [2] (200 μM peptide) was “little if any effect”.
For the compound `CC[C@H](C)[C@H](NC(=O)[C@H](CC(=O)O)NC(=O)[C@H](CC(C)C)NC(=O)[C@H](CCC(N)=O)NC(=O)CNC(=O)[C@H](Cc1ccc(O)cc1)NC(=O)[C@H](CC(N)=O)NC(=O)[C@H](CCCCN)NC(=O)[C@H](CCCNC(=N)N)NC(=O)[C@H](CCCNC(=N)N)NC(=O)[C@H](CS)NC(=O)[C@H](CCC(N)=O)NC(=O)[C@H](CS)NC(=O)[C@@H](CCCNC(=N)N)NC(=O)[C@@H](CCCNC(=N)N)NC(=O)[C@@H](CCCNC(=N)N)NC(=O)[C@@H](CCCNC(=N)N)NC(=O)[C@@H](CCCNC(=N)N)NC(=O)[C@@H](CCCNC(=N)N)NC(=O)[C@@H](CCCNC(=N)N)NC(=O)[C@@H](CCCNC(=N)N)NC(=O)[C@H](N)CCCNC(=N)N)C(=O)N[C@@H](Cc1ccccc1)C(=O)N1CCC[C@H]1C(=O)O` [MUC1/CQC], the “interaction between Flag-MUC1-CD and GFP-MUC1-CD” value in test [1] (setting [3]) is on record as “disruption of the interaction”; in test [1] (transfected HEK 293 cells, 5 μM GO-201 or CP-1 each day for 3 days), “disruption of the interaction”; in test [1] (transfected HEK 293 cells, 5 mM GO-201 as printed) it was “disruption of the interaction”. Further, the His-MUC1-CD oligomer formation entry is listed as “substantially decreased oligomer formation” in test [2] (200 μM peptide) and “substantially decreases oligomer formation; also recorded: inhibited” in test [2] (GO-201 positive control).

For the origin of these results see patent US8952054B2, “Small molecule inhibitors of MUC1 and methods of identifying the same” (Dana-Farber Cancer Institute, Inc., priority 2010, dated 2015).
